Results published in patent US11141410B2 (MERCK SHARP & DOHME CORP., priority 2015, dated 2021).
Where two headings read alike, the source gives them in different places.

Experiments:
[1] = test system: MRSA COL (MB5393); experiment: TarO Inhibitor/β-Lactam Synergy Assay (growth, OD600); assay type: cell-based, Staphylococcus aureus; conditions: for MITC95 TarO inhibitor + 4 μg/mL IPM; Bacteria: SA_MB5393: in combination with 4 μg/mL imipenem (IPM); for MITC95 TarO inhibitor + 8 μg/mL DCX; Bacteria: SA_MB5393: in combination with 8 μg/mL dicloxacillin (DCX)
Procedure: The TarO inhibitor/β-lactam synergy assay was performed to measure the re-sensitization of methicillin-resistant Staphylococci bacteria (MB5393: MRSA COL) to β-lactam antibiotics by TarO inhibitors. MRSA COL is a hospital-acquired penicillinase-negative clinically isolated strain commonly used in Staphylococcus aureus studies and is fully resistant to the antimicrobial bioactivity of β-lactam antibiotics, including but not limited to imipenem and dicloxacillin. […] MRSA COL is fully refractory to β-lactam antibiotic effect at the current clinical breakpoint concentrations and as such MRSA COL is fully viable at these concentrations.
The β-lactam antibiotic concentration was fixed at the clinical breakpoint (imipenem 4 μg/ml or dicloxacillin 8 μg/ml) and the TarO inhibitors were titrated by 2 fold starting from the highest concentration of 200 μM with final DMSO concentration of 2% in the assay. 5×10^5 colony forming unit of MRSA COL in cation-adjusted Mueller Hinton broth (CAMHB) was then mixed and the assay plate was incubated for 20 hours at 37° C. without shaking. After 20 hours, the optical density at 600 nm (OD600) was read for all wells to determine relative growth of MRSA COL.

[2] = test system: MRSA COL (MB5393); experiment: as above; assay type: cell-based; conditions: Staphylococcus aureus, read-out: MITC95 TarO inhibitor alone, Bacteria: SA_MB5393
[3] = TarO inhibitor alone, >200 μM = 95% growth inhibition not achieved, 20 hours at 37° C.

C[C@H]1[C@@H](c2cc(F)cc(C(F)(F)F)c2)OC(=O)N1C(=O)NCc1cccc2cn[nH]c12 [Example 39, (4S,5R)-5-[3-fluoro-5-(trifluoromethyl)phenyl]-N-(1H-indazol-7-ylmethyl)-4-methyl-2-oxo-1,3-oxazolidine-3-carboxamide]
MITC95 TarO inhibitor + 4 μg/mL IPM; Bacteria: SA_MB5393 [1]: 0.78 µM | MITC95 TarO inhibitor + 8 μg/mL DCX; Bacteria: SA_MB5393 [1]: 25 µM | IC95 [2, 3]: > 200 µM

C[C@H]1[C@@H](c2cc(F)cc(C(F)(F)F)c2)OC(=O)N1C(=O)NCc1cccc2c1C(=O)NC2 [Example 40]
MITC95 TarO inhibitor + 4 μg/mL IPM; Bacteria: SA_MB5393 [1]: 18.75 µM | MITC95 TarO inhibitor + 8 μg/mL DCX; Bacteria: SA_MB5393 [1]: 50 µM | IC95 [2, 3]: > 200 µM

Cc1cccnc1CCNC(=O)N1C(=O)O[C@H](c2cc(C(F)(F)F)cc(C(F)(F)F)c2)[C@@H]1C [Example 41, (4S,5R)-5-[3,5-bis(trifluoromethyl)phenyl]-4-methyl-N-[2-(3-methylpyridin-2-yl)ethyl]-2-oxo-1,3-oxazolidine-3-carboxamide]
MITC95 TarO inhibitor + 4 μg/mL IPM; Bacteria: SA_MB5393 [1]: 1.56 µM | MITC95 TarO inhibitor + 8 μg/mL DCX; Bacteria: SA_MB5393 [1]: 16.67 µM | IC95 [2, 3]: > 200 µM

C[C@H]1[C@@H](c2cc(C(F)(F)F)cc(C(F)(F)F)c2)OC(=O)N1C(=O)NCc1cnc2c(c1)CCC2 [Example 42, (4S,5R)-5-[3,5-bis(trifluoromethyl)phenyl]-N-(6,7-dihydro-5H-cyclopenta[b]pyridin-3-ylmethyl)-4-methyl-2-oxo-1,3-oxazolidine-3-carboxamide]
MITC95 TarO inhibitor + 4 μg/mL IPM; Bacteria: SA_MB5393 [1]: 0.78 µM | MITC95 TarO inhibitor + 8 μg/mL DCX; Bacteria: SA_MB5393 [1]: 12.50 µM | IC95 [2, 3]: > 200 µM

Cc1nc(C)c(CNC(=O)N2C(=O)O[C@H](c3cc(F)cc(C(F)(F)F)c3)[C@@H]2C)s1 [Example 43, (4S,5R)-N-[(2,4-dimethyl-1,3-thiazol-5-yl)methyl]-5-[3-fluoro-5-(trifluoromethyl)phenyl]-4-methyl-2-oxo-1,3-oxazolidine-3-carboxamide]
MITC95 TarO inhibitor + 4 μg/mL IPM; Bacteria: SA_MB5393 [1]: 5.21 µM | MITC95 TarO inhibitor + 8 μg/mL DCX; Bacteria: SA_MB5393 [1]: 42 µM | IC95 [2, 3]: > 200 µM

C[C@H]1[C@@H](c2cc(F)cc(C(F)(F)F)c2)OC(=O)N1C(=O)NCc1ccccc1S(C)(=O)=O [Example 44, (4S,5R)-5-[3-fluoro-5-(trifluoromethyl)phenyl]-4-methyl-N-[2-(methylsulfonyl)benzyl]-2-oxo-1,3-oxazolidine-3-carboxamide]
MITC95 TarO inhibitor + 4 μg/mL IPM; Bacteria: SA_MB5393 [1]: 12.50 µM | MITC95 TarO inhibitor + 8 μg/mL DCX; Bacteria: SA_MB5393 [1]: 25 µM | IC95 [2, 3]: > 200 µM

C[C@H]1[C@@H](c2cc(C(F)(F)F)cc(C(F)(F)F)c2)OC(=O)N1C(=O)NCc1cccnc1N1CCOCC1 [Example 45, (4S,5R)-5-[3,5-bis(trifluoromethyl)phenyl]-4-methyl-N-[(2-morpholin-4-ylpyridin-3-yl)methyl]-2-oxo-1,3-oxazolidine-3-carboxamide]
MITC95 TarO inhibitor + 4 μg/mL IPM; Bacteria: SA_MB5393 [1]: 4.69 µM | MITC95 TarO inhibitor + 8 μg/mL DCX; Bacteria: SA_MB5393 [1]: 25 µM | IC95 [2, 3]: > 200 µM

C[C@H]1[C@@H](c2cc(F)cc(C(F)(F)F)c2)OC(=O)N1C(=O)N(O)Cc1cccc2ccccc12 [Example 46, (4S,5R)-5-[3-fluoro-5-(trifluoromethyl)phenyl]-N-hydroxy-4-methyl-N-(naphthalen-1-ylmethyl)-2-oxo-1,3-oxazolidine-3-carboxamide]
MITC95 TarO inhibitor + 4 μg/mL IPM; Bacteria: SA_MB5393 [1]: 6.25 µM | MITC95 TarO inhibitor + 8 μg/mL DCX; Bacteria: SA_MB5393 [1]: 50 µM | IC95 [2, 3]: > 200 µM

C[C@H]1[C@@H](c2cc(F)cc(C(F)(F)F)c2)OC(=O)N1C(=O)NCc1cnc2sccn12 [Example 47, (4S,5R)-5-[3-fluoro-5-(trifluoromethyl)phenyl]-N-(imidazo[2,1-b][1,3]thiazol-5-ylmethyl)-4-methyl-2-oxo-1,3-oxazolidine-3-carboxamide]
MITC95 TarO inhibitor + 4 μg/mL IPM; Bacteria: SA_MB5393 [1]: 62 µM | MITC95 TarO inhibitor + 8 μg/mL DCX; Bacteria: SA_MB5393 [1]: 50 µM | IC95 [2, 3]: > 200 µM

C[C@H]1[C@@H](c2cc(F)cc(C(F)(F)F)c2)OC(=O)N1C(=O)NCc1cncc2ccccc12 [Example 48, (4S,5R)-5-[3-fluoro-5-(trifluoromethyl)phenyl]-N-(isoquinolin-4-ylmethyl)-4-methyl-2-oxo-1,3-oxazolidine-3-carboxamide]
MITC95 TarO inhibitor + 4 μg/mL IPM; Bacteria: SA_MB5393 [1]: 0.13 µM | MITC95 TarO inhibitor + 8 μg/mL DCX; Bacteria: SA_MB5393 [1]: 0.39 µM | IC95 [2, 3]: > 200 µM

C[C@H]1[C@@H](c2cc(C(F)(F)F)cc(C(F)(F)F)c2)OC(=O)N1C(=O)NCc1cccc2c1OCCO2 [Example 49, (4S,5R)-5-[3,5-bis(trifluoromethyl)phenyl]-N-(2,3-dihydro-1,4-benzodioxin-5-ylmethyl)-4-methyl-2-oxo-1,3-oxazolidine-3-carboxamide]
MITC95 TarO inhibitor + 4 μg/mL IPM; Bacteria: SA_MB5393 [1]: 0.02 µM | MITC95 TarO inhibitor + 8 μg/mL DCX; Bacteria: SA_MB5393 [1]: 0.13 µM | IC95 [2, 3]: > 200 µM

O=C(NCc1cncc2ccccc12)N1C(=O)O[C@H](c2cc(C(F)(F)F)cc(C(F)(F)F)c2)[C@@H]1CO [Example 50, (4S,5R)-5-(3,5-bis(trifluoromethyl)phenyl)-4-(hydroxymethyl)-N-(isoquinolin-4-ylmethyl)-2-oxooxazolidine-3-carboxamide]
MITC95 TarO inhibitor + 4 μg/mL IPM; Bacteria: SA_MB5393 [1]: 0.22 µM | MITC95 TarO inhibitor + 8 μg/mL DCX; Bacteria: SA_MB5393 [1]: 0.64 µM | IC95 ([2]; 20 h): > 200 µM

COc1cc([C@H]2OC(=O)N(C(=O)NCc3cncc4cccnc34)[C@H]2CO)cc(C(F)(F)F)c1 [Example 51, (4S,5R)-4-(hydroxymethyl)-5-[3-methoxy-5-(trifluoromethyl)phenyl]-N-(1,6-naphthyridin-8-yl-methyl)-2-oxo-1,3-oxazolidine-3-carboxamide]
MITC95 TarO inhibitor + 4 μg/mL IPM; Bacteria: SA_MB5393 [1]: 1.56 µM | MITC95 TarO inhibitor + 8 μg/mL DCX; Bacteria: SA_MB5393 [1]: 8.33 µM | IC95 [2, 3]: > 200 µM

COc1cccc(CNC(=O)N2C(=O)O[C@H](c3cc(C(F)(F)F)cc(C(F)(F)F)c3)[C@@H]2CO)c1OC [Example 52, (4S,5R)-5-[3,5-bis(trifluoromethyl)phenyl]-N-(2,3-dimethoxybenzyl)-4-(hydroxymethyl)-2-oxo-1,3-oxazolidine-3-carboxamide]
MITC95 TarO inhibitor + 4 μg/mL IPM; Bacteria: SA_MB5393 [1]: 0.03 µM | MITC95 TarO inhibitor + 8 μg/mL DCX; Bacteria: SA_MB5393 [1]: 0.06 µM | IC95 [2, 3]: > 200 µM

O=C(NCc1cncc2cccnc12)N1C(=O)O[C@H](c2cc(C(F)(F)F)cc(C(F)(F)F)c2)[C@@H]1CO [Example 53, (4S,5R)-5-[3,5-bis(trifluoromethyl)phenyl]-4-(hydroxymethyl)-N-(1,6-naph-thyridin-8-yl-methyl)-2-oxo-1,3-oxazolidine-3-carboxamide]
MITC95 TarO inhibitor + 4 μg/mL IPM; Bacteria: SA_MB5393 [1]: 0.39 µM | MITC95 TarO inhibitor + 8 μg/mL DCX; Bacteria: SA_MB5393 [1]: 1.37 µM | IC95 [2, 3]: > 200 µM
